Measured values reported in patent US10329283B2, “G protein-coupled receptor kinase inhibitors and methods for use of the same” (THE REGENTS OF THE UNIVERSITY OF MICHIGAN, priority 2015, dated 2019).
Counter-ions that a name gives are not always drawn.

Legend:
[1] = in words; Thal et al., Mol Pharmacol 2011; cited from earlier work
GRK2 [2] = target: T1, GRK2 (Homo sapiens, UniProt P25098); conditions: in words; Setyawan et al. 1999, Tesmer et al. 2010; cited from earlier work
T1 sequence (P25098 1-689): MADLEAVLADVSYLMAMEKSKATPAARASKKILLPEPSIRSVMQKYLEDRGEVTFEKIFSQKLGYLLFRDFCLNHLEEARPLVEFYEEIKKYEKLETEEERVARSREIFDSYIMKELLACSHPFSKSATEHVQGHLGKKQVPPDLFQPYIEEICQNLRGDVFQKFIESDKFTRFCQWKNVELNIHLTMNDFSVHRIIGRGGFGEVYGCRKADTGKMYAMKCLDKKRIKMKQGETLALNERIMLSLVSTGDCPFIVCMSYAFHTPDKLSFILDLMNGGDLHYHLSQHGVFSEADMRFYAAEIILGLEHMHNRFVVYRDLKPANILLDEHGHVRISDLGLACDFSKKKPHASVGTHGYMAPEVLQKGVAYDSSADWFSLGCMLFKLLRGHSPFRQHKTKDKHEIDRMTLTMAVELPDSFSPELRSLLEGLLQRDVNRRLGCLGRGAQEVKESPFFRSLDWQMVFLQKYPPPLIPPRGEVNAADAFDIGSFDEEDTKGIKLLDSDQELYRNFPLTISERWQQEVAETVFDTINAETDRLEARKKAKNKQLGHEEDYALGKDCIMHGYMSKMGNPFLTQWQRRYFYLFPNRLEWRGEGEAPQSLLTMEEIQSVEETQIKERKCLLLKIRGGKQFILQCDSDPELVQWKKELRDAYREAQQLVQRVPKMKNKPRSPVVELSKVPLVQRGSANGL

GRK1 = target: T2, GRK1 (Bos taurus, UniProt P28327); experiment: GRK1 kinetic assay for inhibition of GRKs (phosphorimaging); assay type: biochemical; conditions: 50 nM GRK, 5 μM ATP, 500 nM bROS or tubulin, 5 min
T2 sequence (P28327 1-535 limits assumed): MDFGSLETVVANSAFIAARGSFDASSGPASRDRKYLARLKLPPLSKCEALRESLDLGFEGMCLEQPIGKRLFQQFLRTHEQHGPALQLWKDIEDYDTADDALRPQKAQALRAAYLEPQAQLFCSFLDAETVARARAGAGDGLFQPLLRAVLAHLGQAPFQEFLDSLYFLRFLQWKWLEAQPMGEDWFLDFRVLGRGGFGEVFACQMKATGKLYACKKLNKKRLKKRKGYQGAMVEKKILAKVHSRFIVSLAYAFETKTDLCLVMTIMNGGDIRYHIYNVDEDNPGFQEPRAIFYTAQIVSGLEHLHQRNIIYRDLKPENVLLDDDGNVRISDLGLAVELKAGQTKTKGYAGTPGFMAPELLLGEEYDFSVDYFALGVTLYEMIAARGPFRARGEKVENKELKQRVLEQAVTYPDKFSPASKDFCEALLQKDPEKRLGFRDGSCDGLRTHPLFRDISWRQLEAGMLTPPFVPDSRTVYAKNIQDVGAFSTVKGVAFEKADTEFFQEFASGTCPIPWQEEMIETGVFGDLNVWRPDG
Experimental: (§1) The low salt concentration and DDM were used to maximize GRK activity and disrupt small molecule aggregates from forming, respectively. […] Data was analyzed and inhibition curves were fit via GraphPad Prism.

GRK2 [3] = target: T1, GRK2; experiment: GRK2 kinetic assay for inhibition of GRKs (phosphorimaging); assay type: biochemical; conditions: 50 nM GRK, 5 μM ATP, 500 nM bROS or tubulin, 5 min
Experimental: as §1

GRK5 = GRK5 (Homo sapiens, UniProt P34947); experiment: GRK5 kinetic assay for inhibition of GRKs (phosphorimaging); assay type: biochemical; conditions: 50 nM GRK, 5 μM ATP, 500 nM bROS or tubulin, 5 min
Chain of GRK5 (P34947 whole entry, species assumed): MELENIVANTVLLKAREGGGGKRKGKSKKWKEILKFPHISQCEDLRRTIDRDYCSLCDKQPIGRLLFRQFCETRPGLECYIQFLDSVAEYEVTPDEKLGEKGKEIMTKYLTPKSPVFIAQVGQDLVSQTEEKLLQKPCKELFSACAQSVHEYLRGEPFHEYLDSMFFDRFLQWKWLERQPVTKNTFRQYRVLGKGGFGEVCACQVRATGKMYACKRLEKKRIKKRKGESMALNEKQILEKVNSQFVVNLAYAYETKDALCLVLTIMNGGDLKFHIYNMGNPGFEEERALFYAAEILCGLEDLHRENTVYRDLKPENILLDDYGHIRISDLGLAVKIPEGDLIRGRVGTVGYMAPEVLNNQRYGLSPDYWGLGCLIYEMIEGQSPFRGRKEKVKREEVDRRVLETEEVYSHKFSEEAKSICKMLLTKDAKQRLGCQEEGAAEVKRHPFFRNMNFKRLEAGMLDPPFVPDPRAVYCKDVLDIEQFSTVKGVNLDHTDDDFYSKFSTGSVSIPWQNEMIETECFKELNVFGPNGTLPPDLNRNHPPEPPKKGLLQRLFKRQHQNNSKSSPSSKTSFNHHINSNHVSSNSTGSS
Experimental: as §1

IC50 (GRK1) | IC50 (GRK2 [3]) | IC50 (GRK5) | Structure (SMILES) | bioavailability [1] | inhibition of GRK2 (GRK2 [2])
 |  |  | CCCn1c(CNc2cccc(C(=O)NCc3c(F)cccc3F)c2)nnc1-c1ccncn1 [Takeda103A] | poor bioavailability | 
 |  |  | O=C(N[C@@H]1CNCCC[C@H]1OC(=O)c1cc(O)c(C(=O)c2c(O)cccc2C(=O)O)c(O)c1)c1ccc(O)cc1 [balanol] |  | low nanomolar range
59.2 µM | 3.61 µM | > 100 µM | O=C(Cc1cc([C@@H]2CCNC[C@H]2COc2ccc3c(c2)OCO3)ccc1F)NCc1ccccn1 [Example E05, 2-(5-((3S,4R)-3-((benzo[d][1,3]dioxol-5-yloxy)methyl)piperidin-4-yl)-2-fluorophenyl)-N-(pyridin-2-ylmethyl)acetamide hydrochloride] |  | 
22 µM | 1.39 µM | > 100 µM | COc1cccc(OC)c1CNC(=O)c1cc([C@@H]2CCNC[C@H]2COc2ccc3c(c2)OCO3)ccc1F [Example E15, 5-((3S,4R)-3-((benzo[d][1,3]dioxol-5-yloxy)methyl)piperidin-4-yl)-N-(2,6-dimethoxybenzyl)-2-fluorobenzamide hydrochloride] |  | 
40.1 µM | 0.4 µM | 8.12 µM | COc1cccc(OC)c1CNC(=O)c1cc([C@@H]2CCNC[C@H]2COc2cc3cn[nH]c3cc2F)ccc1F [Example E31, N-(2,6-dimethoxybenzyl)-2-fluoro-5-((3S,4R)-3-(((6-fluoro-1H-indazol-5-yl)oxy)methyl)piperidin-4-yl)benzamide] |  | 

Structure (SMILES) | IC50 (GRK1) | IC50 (GRK2 [3]) | IC50 (GRK5) | bioavailability [1] | inhibition of GRK2 (GRK2 [2])
Fc1ccc([C@@H]2CCNC[C@H]2COc2cc3cn[nH]c3cc2F)cc1 [Example E30, 6-fluoro-5-(((3S,4R)-4-(4-fluorophenyl)piperidin-3-yl)methoxy)-1H-indazole] | 3.67 µM | 0.14 µM | 0.82 µM |  | 
